Patent US20260306484A1, “INVERSE AGONISTS OF RAR RELATED ORPHAN RECEPTORS (RORS)” (11949098 CANADA INC. (NUREDCO) c/o Jean I. TCHERVENKOV, priority 2023, published 2026)

Assays:
[1] = system: Balb/c skin grafts; experiment: Balb/c skin graft survival in sensitized C57BL/6 recipients (Example 9); assay type: in vivo, mouse (C57BL/6); conditions: for median graft survival: daily ip, cpd 13 1 mg/kg, tacrolimus 0.5 mg/kg, or both, ctrl = 6 days, P-value<<0.001, mantel-cox test
Method: C57BL/6 mice were sensitized by 3 IP injections of 10 M Balb/c splenocytes at day 0, 7 and 14. The mice were transplanted at day 15 with 1 cm^2 skin grafts from Balb/c mice and treated daily with ip injections of vehicle (ctrl), cpd 13 1 mg/kg (131 mg/kg), tacrolimus 0.5 mg/kg (tacro0.5 mg/kg) and cpd13 1 mg/kg+tacrolimus 0.5 mg/kg (131 mg/kg+tacro0.5 mg/kg). P-value<<0.001, mantel-cox test; median graft survival: ctrl=6 days, tacro0.5 mg/kg=7 days, 131 mg/kg=13.5 days and cpd13 131 mg/kg+tacro0.5 mg/kg=23 days.

[2] = system: HuH-7 cells; experiment: HuH-7 cell viability assay (MTT, GFP); assay type: cell-based, human
Description: (§1) FIG. 30 illustrates in vitro cell viability assay both human HuH-7 and mouse Hepa1-6 cell lines with increasing concentrations of compound 10. In the human cell line you see an effect with as low as 1mMol concentration. HuH-7 and Hepa1-6 cell viability assays.

[3] = system: Hepa1-6 cells; experiment: Hepa1-6 cell viability assay (MTT, GFP); assay type: cell-based, mouse; conditions: varying concentrations
Description: as §1

[4] = system: Hepa1-6 cells; experiment: Hepa1-6 colony formation assay; assay type: cell-based, mouse
Description: (§2) FIG. 32 illustrates another in vitro viability assay Colony Formation Assay. […] HuH-7 and Hepa1-6 colony formation assays.
(§3) FIG. 33 illustrates another in vitro viability assay Colony Formation Assay. […] HuH-7 and Hepa1-6 colony formation assays.

[5] = system: breast cancer cell lines; experiment: Cell colony forming units, breast cancer; assay type: cell-based, human; conditions: 5 micromolar
[6] = system: pancreatic cancer (PDL1 expression); experiment: PDL1 immune checkpoint expression in pancreatic cancer; assay type: cell-based, human; conditions: pancreatic cancer (FIG. 19)
[7] = system: CD4+ cells from in-vitro polarized peripheral blood mononuclear cells; experiment: Th17-polarized PBMCs treated 48 h, then PMA/ionomycin and intracellular staining by flow cytometry; assay type: cell-based, human; conditions: 750 nM, PBMCs from 9 individuals, vs vehicle, paired t-test P<0.05
Method: FIG. 4 illustrates a bar graph represents the % of IL17A+ cells also known as Th17 cells out of CD4+ cells known as Helper T cells. The peripheral blood mononuclear cells from 9 individuals were polarized (in-vitro) using CD3/CD28 dynabeads in presence of TGFβ, IL1B, IL6 and IL23 for 14 days. The cells from each individual was divided into two equal portions and one portion was treated with the Cpd10 at dose of 750 nM and the second portion was treated with the vehicle for 48 hours followed by PMA/ionomycin in presence of transport blocker for 6 hours. Cpd10 decreased the % of IL17A+CD4+ in treated compared to vehicle treated controls and measured by flow cytometry. Paired t-test, significant, P<0.05.
(§4) FIG. 5 illustrates a bar graph represents the % of IL21+ cells which includes all types of CD4+ cells secreting IL21 (e.g. Th17, Tfh). The peripheral blood mononuclear cells from 9 individuals were polarized (in-vitro) using CD3/CD28 dynabeads in presence of TGFβ, IL1β, IL6 and IL23 for 14 days. The cells from each individual was divided into two equal portions and one portion was treated with the Cpd10 at dose of 750 nM and the second portion was treated with the vehicle for 48 hours followed by PMA/ionomycin in presence of transport blocker for 6 hours. Cpd10 decreased the % of IL21+CD4+ in treated compared to vehicle treated controls measured by flow cytometry. Paired t-test Significant P<0.05.
as §4, with “FIG. 6” for “FIG. 5”, “of IL22+” for “of IL21+”, “secreting IL22” for “secreting IL21”, “Th17, Th22).” for “Th17, Tfh).”, “of IL22+CD4+” for “of IL21+CD4+”, “Paired t-test, significant,” for “Paired t-test Significant”
FIG. 7 illustrates a bar graph represents the % RORγt+ cells which includes all types of CD4+ cells expressing RORγt (e.g. Th17). The peripheral blood mononuclear cells from 9 individuals were polarized (in-vitro) using CD3/CD28 dynabeads in presence of TGFβ, IL1β, IL6 and IL23 for 14 days. The cells from each individual was divided into two equal portions and one portion was treated with the Cpd10 at dose of 750 nM and the second portion was treated with the vehicle for 48 hours followed by PMA/ionomycin in presence of transport blocker for 6 hours. Cpd10 increased the % of RORγt+ CD4+ in treated compared to vehicle treated controls measured by flow cytometry. […]

[8] = system: HuH-7 cells; experiment: HuH-7 colony formation assay; assay type: cell-based, human
Description: as §2, §3

Compound | median graft survival [1] | skin graft survival increase ([1]; increase survival from 1 up to 3 weeks (FIG. 50)) | minimal effective concentration ([2]; human cell line HuH-7, read-out: lowest concentration with an effect on cell viability) | HuH-7 cell viability, GFP assay ([2]; varying concentrations) | HuH-7 cell viability, MTT assay ([2]; varying concentrations) | Hepa1-6 cell viability, GFP assay [3] | Hepa1-6 cell viability, MTT assay [3] | minimal effective concentration ([4]; Mus musculus, Hepa1-6, both cell lines suppressed, read-out: concentration at which Hepa1-6 colony formation is suppressed) | Hepa1-6 colony growth ability ([4]; varying concentrations) | ability to form colony forming units [5] | expression of PDL1 [6] | % of IL17A+ cells (Th17) out of CD4+ cells [7] | % of IL21+CD4+ cells [7] | % of IL22+CD4+ cells [7] | % of RORγt+ CD4+ cells [7] | minimal effective concentration ([8]; Homo sapiens, Huh-7, both cell lines suppressed, read-out: concentration at which HuH-7 colony formation is suppressed) | HuH-7 colony growth ability ([8]; varying concentrations)
C=CC[C@@H]1/C=C(\C)C[C@H](C)C[C@H](OC)[C@H]2O[C@@](O)(C(=O)C(=O)N3CCCC[C@H]3C(=O)O[C@H](/C(C)=C/[C@@H]3CC[C@@H](O)[C@H](OC)C3)[C@H](C)[C@@H](O)CC1=O)[C@H](C)C[C@@H]2OC [tacrolimus, reference compound] | 7 days |  |  |  |  |  |  |  |  |  |  |  |  |  |  |  | 
C[C@@H]1CCN(C(=O)c2c(NC(=O)c3cccnc3)sc3c2CCCC3)[C@H](C)C1 [Compound 13, N-(3-((2R,4R)-2,4-dimethylpiperidine-1-carbonyl)-4,5,6,7-tetrahydrobenzo[b]thiophen-2-yl) nicotinamide] | 13.5 days | up to 3 weeks |  |  |  |  |  |  |  |  |  |  |  |  |  |  | 
CN1CCN(CC(=O)Nc2sc3c(c2C(=O)NCc2ccccc2)CCCC3)CC1 [Compound 10, N-benzyl-2-(2-(4-methylpiperazin-1-yl)acetamido)-4,5,6,7-tetrahydrobenzo[b]thiophene-3-carboxamide] |  |  | 1000 µM | significant and dose dependent difference | significant and dose dependent difference | significant and dose dependent difference | significant and dose dependent difference | 2500 µM | significant and dose dependent difference | significantly reduces | increases that expression | decreased | decreased | decreased | increased | 2500 µM | significant and dose dependent difference
